Data from patent US8927750B2, “Acyloxy- and phosphoryloxy-butadiene-Fe(CO)3 complexes as enzyme-triggered co-releasing molecules” (priority 2011, dated 2015).
Like-named read-outs stand apart in the source and are kept apart here.

Legend:
Assay type in all cases: biochemical
[1] = test system: lipase from Candida rugosa; set-up: key to cleaved by lipase from Candida rugosa: “+” indicates kinetic racemic resolution; “−” means that no reaction took place
[2] = test system: horse skeletal myoglobin (Mb); experiment: Carbon monoxide release (Mb-assay) without esterase/lipase; conditions: for carbon monoxide release without esterase/lipase: Mb solution, closed cell, 37° C.; for carbon monoxide release without esterase/lipase after exposure to air: cell opened to air for 2 s
Procedure: (§1) For this purpose, a solution of 30 mg Mb in 15 mL buffer was degassed by bubbling with argon for 10 min, then reduced by addition of an excess of Na2S2O4 and degassed again for 10 min. The concentration was determined by measuring a 1:10 diluted solution and using the following equation: A=ελ·c·l with ε408 nm=188000 L mol^−1 cm^−1
(§2) A stock solution of a complex in DMSO and a solution of the esterase in phosphate buffer were added under argon before the cell was closed to prevent re-oxidation of the Fe(II) in the Mb solution to Fe(III). […] Equivalents of the esterase are given relative to the inventive complex.
The Mb solution (c=93 μM) was reduced by the addition of 22 mg (126.4 μmol, 91 eq) of Na2S2O4 in 0.1 mL buffer. 0.7 mg (2.8 μmol) of 2-methoxycyclohexa-1,3-dienetricarbonyliron (0) were dissolved in 70 μL of DMSO to provide a 0.039 M solution. For the measurement, 6 μL (2.39·10^−7 mol, 1.3 eq) of this solution were added to 2.3 mL of the Mb solution (2.14·10^−7 mol, 1 eq).

pig liver esterase (PLE) [3] = test system: pig liver esterase (PLE); set-up: key to cleaved by PLE: “+” indicates kinetic racemic resolution; “−” means that no reaction took place
pig liver esterase (PLE) [4] = experiment: Carbon monoxide release (Mb-assay) with pig liver esterase; conditions: Mb solution, closed cell, 37° C.
Procedure: as §1, §2
The Mb solution (c=76 μM) was reduced by the addition of 23 mg (132.1 μmol, 116 eq) of Na2S2O4 in 0.1 mL buffer. 1.7 mg (6.2 μmol) of rac-96 were dissolved in 160 μL of DMSO to provide a 0.038 M solution. For the measurement, 6 μL (2.29·10^−7 mol, 1.3 eq) of this solution were added to 2.3 mL of the Mb solution (1.75·10^−7 mol, 1 eq) and 70 μL (approximately 0.01 eq) of a solution of 0.7 mg pig liver esterase (PLE) in 240 μL buffer.
The Mb solution (c=56 μM) was reduced by the addition of 22 mg (126.4 μmol, 151 eq) of Na2S2O4 in 0.1 mL buffer. 1.1 mg (3.0 μmol) of rac-13 were dissolved in 100 μL of DMSO to provide a 0.030 M solution. For the measurement, 3 μL (9.06·10^−8 mol, 0.7 eq) of this solution were added to 2.3 mL of the Mb solution (1.28·10^−7 mol, 1 eq) and 70 μL (approximately 0.01 eq) of a solution of 0.6 mg PLE in 240 μL buffer.

[5] = test system: lipase from Candida rugosa; experiment: Carbon monoxide release (Mb-assay) with lipase from Candida rugosa; conditions: for carbon monoxide release with lipase from Candida rugosa: Mb solution, closed cell, 37° C.
Procedure: as §1, §2
The Mb solution (c=88 μM) was reduced by the addition of 22 mg (126.4 μmol, 95 eq) of Na2S2O4 in 0.1 mL buffer. 3.4 mg (12 μmol) of rac-86 were dissolved in 300 μL of DMSO to provide a 0.041 M solution. For the measurement, 6 μL (2.45·10^−7 mol, 1.2 eq) of this solution were added to 2.3 mL of the Mb solution (2.03·10^−7 mol, 1 eq) and 70 μL (approximately 0.09 eq) of a solution of 5 mg lipase from Candida rugosa in 240 μL buffer.
The Mb solution (c=95 μM) was reduced by the addition of 23 mg (132.1 μmol, 92 eq) of Na2S2O4 in 0.1 mL buffer. 1.8 mg (5.6 μmol) of rac-87 were dissolved in 180 μL of DMSO to provide a 0.031 M solution. For the measurement, 12 μL (3.74·10^−7 mol, […]) of this solution were added to 2.3 mL of the Mb solution (2.19·10^−7 mol, 1 eq) and 140 μL (approximately 0.17 eq) of a solution of 15 mg lipase from Candida rugosa in 500 μL buffer.

[6] = test system: lipase from Candida rugosa; conditions: open tube, 10 mg complex, 20 mg lipase
[7] = time 0 min, 12 mg complex, 15 mg enzyme
[8] = time 110 min, 12 mg complex, 15 mg enzyme

In the case of COC1=CCCC=C1.O=[C]=[Fe](=[C]=O)=[C]=O [2-methoxycyclohexa-1,3-dienetricarbonyliron (0), reference compound], the “cleaved by lipase from Candida rugosa” value ([1]; General Procedure I) is reported as “−”, the “reaction with lipase from Candida rugosa” value ([1]; General Procedure I) is reported as “did not react” and the “carbon monoxide release without esterase/lipase” value [2] is reported as “no carbon monoxide release”. The “carbon monoxide release without esterase/lipase after exposure to air” value [2] was “no carbon monoxide was released”, the “cleaved by PLE” value (pig liver esterase (PLE) [3]; General Procedure I) was “−” and the “reaction with PLE” value (pig liver esterase (PLE) [3]; General Procedure I) was “did not react”.
In the case of CC(=O)OC1=CC(C)(C)CC(OC(C)=O)=C1.[C-]#[O+].[C-]#[O+].[C-]#[O+].[Fe] [rac-13, reference compound], the “cleaved by lipase from Candida rugosa” value ([1]; General Procedure I) is reported as “−”, the “carbon monoxide release without esterase/lipase” value [2] is reported as “no significant amount of carbon monoxide was released” and the “cleaved by PLE” value (pig liver esterase (PLE) [3]; General Procedure I) is reported as “+”. For the same compound, the “conversion (%)” value (pig liver esterase (PLE) [3]; time 15 min, 13 mg complex, 0.8 mg enzyme) was 3%, the “conversion (%)” value (pig liver esterase (PLE) [3]; time 30 min, 13 mg complex, 0.8 mg enzyme) was 12% and the “conversion (%)” value (pig liver esterase (PLE) [3]; time 45 min, 13 mg complex, 0.8 mg enzyme) was 54%. The “conversion (%)” value (pig liver esterase (PLE) [3]; time 150 min, 13 mg complex, 0.8 mg enzyme) was 64%, the “conversion (%)” value (pig liver esterase (PLE) [3]; time 210 min, 13 mg complex, 0.8 mg enzyme) was 80% and the “carbon monoxide release with pig liver esterase” value (pig liver esterase (PLE) [4]) was “carbon monoxide release”.
In the case of CC(=O)OC1=CCCC=C1.[C-]#[O+].[C-]#[O+].[C-]#[O+].[Fe] [rac-86, (RS)-[η^4-Cyclohexa-1,5-dien-1-yl-tricarbonyliron(0)]acetate], the “carbon monoxide release with lipase from Candida rugosa” value [5] is reported as “carbon monoxide release”, the “cleaved by lipase from Candida rugosa” value ([1]; General Procedure I) is reported as “+” and the “conversion (%)” value ([1]; time 0 min, 8 mg enzyme) is reported as 0/0%. The “conversion (%)” value ([1]; time 15 min, 8 mg enzyme) was 32%, the “conversion (%)” value ([1]; time 30 min, 8 mg enzyme) was 68% and the “conversion (%)” value ([1]; time 60 min, 8 mg enzyme) was 82%. For the same compound, the “conversion (%)” value ([1]; time 110 min, 8 mg enzyme) was 93%, the “conversion (%)” value ([1]; time 240 min, 8 mg enzyme) was 98% and the “conversion (%)” value ([6]; time 0 min) was 0/0%. The “conversion (%)” value ([6]; time 15 min) was 60%, the “conversion (%)” value ([6]; time 30 min) was 79% and the “conversion (%)” value ([6]; time 60 min) was 85%. For the same compound, the “conversion (%)” value ([6]; time 110 min) was 97%, the “carbon monoxide release without esterase/lipase” value [2] was “no carbon monoxide was released” and the “cleaved by PLE” value (pig liver esterase (PLE) [3]; General Procedure I) was “−”. For the same compound, the “carbon monoxide release with pig liver esterase” value (pig liver esterase (PLE) [4]) was “carbon monoxide release”.
For CC(C)(C)C(=O)OC1=CCCC=C1.[C-]#[O+].[C-]#[O+].[C-]#[O+].[Fe] [rac-87, (RS)-[η^4-Cyclohexa-1,5-dien-1-yl-tricarbonyliron(0)] pivalate], the “carbon monoxide release with lipase from Candida rugosa” value [5] was “no carbon monoxide release”, the “carbon monoxide release with lipase from Candida rugosa after exposure to air” value ([5]; cell opened to air for 2 s after 360 min, conversion of Mb-O2 to MbCO) was “carbon monoxide release” and the “cleaved by lipase from Candida rugosa” value ([1]; General Procedure I) was “+”. The “conversion (%)” value ([1]; time 0 min, 8 mg enzyme) was 0/0%, the “conversion (%)” value [1, 7] was 0/0% and the “conversion (%)” value ([1]; time 30 min, 8 mg enzyme) was 4%. The “conversion (%)” value ([1]; time 60 min, 8 mg enzyme) was 6%, the “conversion (%)” value ([1]; time 110 min, 8 mg enzyme) was 8% and the “conversion (%)” value [1, 8] was 47%. For the same compound, the “conversion (%)” value ([1]; time 240 min, 8 mg enzyme) was 12%, the “conversion (%)” value ([1]; time 240 min, 12 mg complex, 15 mg enzyme) was 60% and the “conversion (%)” value ([1]; time 24 h, 8 mg enzyme) was 47%. For the same compound, the “conversion (%)” value ([1]; time 24 h, 12 mg complex, 15 mg enzyme) was 73%, the “carbon monoxide release without esterase/lipase after exposure to air” value [2] was “no carbon monoxide was released” and the “cleaved by PLE” value (pig liver esterase (PLE) [3]; General Procedure I) was “−”.
With CC(=O)OC1=CC=CCC1.[C-]#[O+].[C-]#[O+].[C-]#[O+].[Fe] [rac-96, (RS)-[θ^4-Cyclohexa-1,3-dien-1-yl-tricarbonyliron(0)]acetate] the “cleaved by lipase from Candida rugosa” value ([1]; General Procedure I) was “+”, the “conversion (%)” value [1, 7] was 0/0% and the “conversion (%)” value ([1]; time 15 min, 12 mg complex, 15 mg enzyme) was 43%. The “conversion (%)” value ([1]; time 30 min, 12 mg complex, 15 mg enzyme) was 57%, the “conversion (%)” value ([1]; time 60 min, 12 mg complex, 15 mg enzyme) was 76% and the “conversion (%)” value [1, 8] was 83%. For the same compound, the “conversion (%)” value ([6]; time 0 min) was 0/0%, the “conversion (%)” value ([6]; time 15 min) was 65% and the “conversion (%)” value ([6]; time 30 min) was 77%. For the same compound, the “conversion (%)” value ([6]; time 60 min) was 79%, the “conversion (%)” value ([6]; time 110 min) was 81% and the “carbon monoxide release without esterase/lipase” value [2] was “no carbon monoxide release”. The “cleaved by PLE” value (pig liver esterase (PLE) [3]; General Procedure I) was “+”, the “conversion (%)” value (pig liver esterase (PLE) [3]; time 0 min, 10 mg complex, 1 mg enzyme) was 0% and the “conversion (%)” value (pig liver esterase (PLE) [3]; time 120 min, 10 mg complex, 1 mg enzyme) was 28%. The “conversion (%)” value (pig liver esterase (PLE) [3]; time 180 min, 10 mg complex, 1 mg enzyme) was 45%, the “conversion (%)” value (pig liver esterase (PLE) [3]; time 300 min, 10 mg complex, 1 mg enzyme) was 52% and the “conversion (%)” value (pig liver esterase (PLE) [3]; time 420 min, 10 mg complex, 1 mg enzyme) was 77%. The “conversion (%)” value (pig liver esterase (PLE) [3]; time 540 min, 10 mg complex, 1 mg enzyme) was 84%, the “conversion (%)” value (pig liver esterase (PLE) [3]; time 660 min, 10 mg complex, 1 mg enzyme) was 89% and the “carbon monoxide release with pig liver esterase” value (pig liver esterase (PLE) [4]) was “carbon monoxide release”.
